What all share (assay): DTP human tumour cell line panel, 48 h
Assay [1] relates to DMS 114 small cell lung.
Assay [2] has as its system KM20L2 colon.
Assay [3] concerns XF 498 CNS.
In assay [4] the test system is DMS 273 small cell lung.
In assay [5] the test system is SNB-78 CNS.
The test system of assay [6] is DLD-1 colon.
Assay [7] has as its system RXF-631 renal.

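Tested at 5 concentrations; 48 h exposure; 96-well plates; endpoints linearly interpolated, else capped at highest concentration. GI50 is the concentration that inhibits growth by half. TGI is the concentration that stops growth completely.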 A value given as a limit tells only on which side of the number the result lay.

For orientation: GI50 means the concentration giving 50% growth inhibition. As usually defined, the TGI is the concentration at which net growth stops. Higher therefore signals less potent growth arrest. On to `N#C[S-].[Ce+3].c1cnc2c(c1)ccc1cccnc12.c1cnc2c(c1)ccc1cccnc12.c1cnc2c(c1)ccc1cccnc12`, for which the GI50 was 1.64 µM in assay [1], 1.33 µM in assay [2] and 3.27 µM in assay [3]. Moreover, the TGI in assay [1] amounted to 4.52 µM; in assay [2] it was 14.7 µM; in assay [3] it was 8.95 µM.
`O=C(NNC(=O)c1nsc2ccccc12)c1ccc(Cl)cc1`: the values for the TGI in assay [4], in assay [5] and in assay [2] were 25.1 µM, 61.7 µM and 53.8 µM, respectively.
Regarding `Cc1ccc(SSCCCCCS(=O)O)cc1`, the TGI in assay [6] was over 100 µM; in assay [7] it was over 100 µM; in assay [5], 82.1 µM; in assay [1], 45.2 µM; in assay [3], 49.6 µM.

(Values after PubChem BioAssay (NCI).)
